Drawing on US7196110B2, “N-substituted tricyclic 3-aminopyrazoles as inhibitors for the treatment of cell proliferative disorders” (Janssen Phamaceutica N.V., priority 2002, dated 2007), this text covers inhibition and IC50 for 28 compounds.

The experiment has as its target T1, PDGF-receptor beta enzyme comprising the tyrosine kinase domain (Homo sapiens, UniProt P09619).
T1 construct: from amino acid 545 to 1106 of GenBank Access NO: AAA36427
The experiment in a line: Inhibition of PDGF-receptor kinase activity (cell-free, PLC1 peptide, 33P Flashplate). It is filed as biochemical. As to conditions: PDGF-R kinase activity; for inhibition at 10 µM: compound at 10 uM, read-out: Percent Inhibition @ 10 uM; for IC50: read-out: IC50. Put shortly:
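Recombinant kinase domain (aa 545–1106) phosphorylated a biotinylated PLC1 peptide with 5 μM ATP plus 33P-γ-ATP, in Tris pH 8, MgCl2, Na3VO4 and 1 mM DTT, for 60 min at 30 °C. Retained 33P was counted after washing. IC50 is the concentration halving activity versus no-inhibitor reactions.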

T1 sequence (P09619 545-1106): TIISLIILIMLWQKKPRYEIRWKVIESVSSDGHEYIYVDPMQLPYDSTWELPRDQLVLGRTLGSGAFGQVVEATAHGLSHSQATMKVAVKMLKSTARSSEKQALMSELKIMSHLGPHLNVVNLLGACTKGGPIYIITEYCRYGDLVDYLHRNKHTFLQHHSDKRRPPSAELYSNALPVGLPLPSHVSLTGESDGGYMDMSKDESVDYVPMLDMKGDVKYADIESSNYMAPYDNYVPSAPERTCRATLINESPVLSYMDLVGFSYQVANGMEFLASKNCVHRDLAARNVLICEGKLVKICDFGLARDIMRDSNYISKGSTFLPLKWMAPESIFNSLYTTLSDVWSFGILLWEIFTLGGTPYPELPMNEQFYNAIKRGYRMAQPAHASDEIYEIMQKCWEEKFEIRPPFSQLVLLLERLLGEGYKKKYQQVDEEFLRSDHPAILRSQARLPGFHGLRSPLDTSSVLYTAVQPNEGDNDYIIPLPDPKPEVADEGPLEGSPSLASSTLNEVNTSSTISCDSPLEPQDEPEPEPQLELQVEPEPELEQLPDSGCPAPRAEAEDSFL

Take `COc1cc2c(cc1OC)-c1c(c(Nc3cccc(F)c3)nn1C(=O)NCCN1CCOCC1)C2` [Compound 521, 3-(3-Fluoro-phenylamino)-6,7-dimethoxy-4H-indeno[1,2-c]pyrazole-1-carboxylic acid (2-morpholin-4-yl-ethyl)-amide]: the inhibition (in general, the change of the read-out against control, counted positive when it falls) at 10 µM was determined as 97% and the IC50 (in general, the concentration that gives 50% inhibition) turned out to be 0.0559 µM.

As to `COc1cc2c(cc1OC)-c1nn(C(=O)NCCN3CCOCC3)c(Nc3cccc(F)c3)c1C2` [Compound 522, 3-(3-Fluoro-phenylamino)-6,7-dimethoxy-4H-indeno[1,2-c]pyrazole-2-carboxylic acid (2-morpholin-4-yl-ethyl)-amide], the inhibition at 10 µM stood at 94% and the IC50 amounted to 0.791 µM.

In the case of `COc1cc2c(cc1OC)-c1c(c(Nc3cccc(F)c3)nn1C(=O)NCCNCCO)C2` [Compound 523, 3-(3-Fluoro-phenylamino)-6,7-dimethoxy-4H-indeno[1,2-c]pyrazole-1-carboxylic acid [2-(2-hydroxy-ethylamino)-ethyl]-amide], the inhibition at 10 µM was determined as 98.5% and the IC50 worked out at 0.193 µM.

As to `CNCCNC(=O)n1nc(Nc2cccc(F)c2)c2c1-c1cc(OC)c(OC)cc1C2` [Compound 524, 3-(3-Fluoro-phenylamino)-6,7-dimethoxy-4H-indeno[1,2-c]pyrazole-1-carboxylic acid (2-methylamino-ethyl)-amide], the inhibition at 10 µM worked out at 78% and the IC50 came out at 2.48 µM.

Turning to `COc1cc2c(cc1OC)-c1c(c(Nc3cccc(F)c3)nn1C(=O)NCCNC(=O)C(C)C)C2` [Compound 525, 3-(3-Fluoro-phenylamino)-6,7-dimethoxy-4H-indeno[1,2-c]pyrazole-1-carboxylic acid (2-isobutyrylamino-ethyl)-amide], the inhibition at 10 µM was 33% and the IC50 was 43.2 µM.

`COc1cc2c(cc1OC)-c1c(c(Nc3cccc(F)c3)nn1C(=O)NCCNC(C)=O)C2` [Compound 526, 3-(3-Fluoro-phenylamino)-6,7-dimethoxy-4H-indeno[1,2-c]pyrazole-1-carboxylic acid (2-acetylamino-ethyl)-amide]: the inhibition at 10 µM is 73% and the IC50 was determined as 8.09 µM.

With `C=C(C)C(=O)OCCNC(=O)n1nc(Nc2cccc(F)c2)c2c1-c1cc(OC)c(OC)cc1C2` [Compound 527, 2-Methyl-acrylic acid 2-{[3-(3-fluoro-phenylamino)-6,7-dimethoxy-4H-indeno[1,2-c]pyrazole-1-carbonyl]-amino}-ethyl ester], the inhibition at 10 µM turned out to be 46.5% and the IC50 amounted to 17.5 µM.

`C=C(C)C(=O)OCCNC(=O)n1nc2c(c1Nc1cccc(F)c1)Cc1cc(OC)c(OC)cc1-2` [Compound 528, 2-Methyl-acrylic acid 2-{[3-(3-fluoro-phenylamino)-6,7-dimethoxy-4H-indeno[1,2-c]pyrazole-2-carbonyl]-amino}-ethyl ester]: the inhibition at 10 µM came to 93.5% and the IC50 came out at 0.196 µM.

In the case of `COc1cc2c(cc1OC)-c1nn([C@@H]3O[C@H](C(=O)O)[C@@H](O)[C@H](O)[C@H]3O)c(Nc3cccc(F)c3)c1C2` [Compound 529, 6-[3-(3-Fluoro-phenylamino)-6,7-dimethoxy-4H-indeno[1,2-c]pyrazol-2-yl]-3,4,5-trihydroxy-tetrahydro-pyran-2-carboxylic acid], the inhibition at 10 µM was determined as 44% and the IC50 came out at 10.6 µM.

Consider `COC(=O)C(NC(=O)n1nc(Nc2cccc(F)c2)c2c1-c1cc(OC)c(OC)cc1C2)C(C)C` (centres unmarked) [Compound 530, 2-{[3-(3-Fluoro-phenylamino)-6,7-dimethoxy-4H-indeno[1,2-c]pyrazole-1-carbonyl]-amino}-3-methyl-butyric acid methyl ester], for which the inhibition at 10 µM came out at 71.5% and the 50% inhibitory concentration (IC50) was determined as 4.15 µM.

Turning to `COc1cc2c(cc1OC)-c1c(c(Nc3cccc(F)c3)nn1C(=O)CCC(N)=O)C2` [Compound 531, 4-[3-(3-Fluoro-phenylamino)-6,7-dimethoxy-4H-indeno[1,2-c]pyrazol-1-yl]-4-oxo-butyramide], the inhibition at 10 µM is 90% and the IC50 is 0.024 µM.

`COc1cc2c(cc1OC)-c1c(c(Nc3cccc(F)c3)nn1C(=O)NCCNC(=O)c1ccccc1)C2` [Compound 532, 3-(3-Fluoro-phenylamino)-6,7-dimethoxy-4H-indeno[1,2-c]pyrazole-1-carboxylic acid (2-benzoylamino-ethyl)-amide]: the inhibition at 10 µM was found to be 42%.

As for `COc1cc2c(cc1OC)-c1c(c(Nc3cccc(F)c3)nn1CC(N)=O)C2` [Compound 534, 2-[3-(3-Fluoro-phenylamino)-6,7-dimethoxy-4H-indeno[1,2-c]pyrazol-1-yl]-acetamide], the inhibition at 10 µM came out at 94% and the 50% inhibitory concentration (IC50) was found to be 0.933 µM.

Regarding `COc1cc2c(cc1OC)-c1nn(C(=O)CC(=O)N3CCCC3)c(Nc3cccc(F)c3)c1C2` [Compound 535, 1-[3-(3-Fluoro-phenylamino)-6,7-dimethoxy-4H-indeno[1,2-c]pyrazol-2-yl]-3-pyrrolidin-1-yl-propane-1,3-dione], the inhibition at 10 µM worked out at 105% and the IC50 stood at 0.0322 µM.

For the compound `COc1cc2c(cc1OC)-c1c(c(Nc3cccc(F)c3)nn1C(=O)CC(=O)N1CCCC1)C2` [Compound 536, 1-[3-(3-Fluoro-phenylamino)-6,7-dimethoxy-4H-indeno[1,2-c]pyrazol-1-yl]-3-pyrrolidin-1-yl-propane-1,3-dione], the inhibition at 10 µM came to 88% and the IC50 stood at 0.436 µM.

In the case of `CCN(CC)C(=O)CC(=O)n1nc(Nc2cccc(F)c2)c2c1-c1cc(OC)c(OC)cc1C2` [Compound 537, N,N-Diethyl-3-[3-(3-fluoro-phenylamino)-6,7-dimethoxy-4H-indeno[1,2-c]pyrazol-1-yl]-3-oxo-propionamide], the inhibition at 10 µM was found to be 104% and the IC50 turned out to be 0.33 µM.

For `COc1cc2c(cc1OC)C(C(C)C)c1c-2n[nH]c1Nc1cccc(Br)c1` (centres unmarked) [Compound 538, (3-Bromo-phenyl)-(4-isopropyl-6,7-dimethoxy-2,4-dihydro-indeno[1,2-c]pyrazol-3-yl)-amine], the inhibition at 10 µM is 65%.

With `COc1cc2c(cc1OC)C(C(C)C)c1c-2n[nH]c1Nc1cccc(Cl)c1` (centres unmarked) [Compound 540, (3-Chloro-phenyl)-(4-isopropyl-6,7-dimethoxy-2,4-dihydro-indeno[1,2-c]pyrazol-3-yl)-amine], the inhibition at 10 µM worked out at 47% and the half-inhibitory concentration (IC50) turned out to be 14.7 µM.

Regarding `COc1cccc(Nc2[nH]nc3c2C(C(C)C)c2cc(OC)c(OC)cc2-3)c1` (centres unmarked) [Compound 541, (4-lsopropyl-6,7-dimethoxy-2,4-dihydro-indeno[1,2-c]pyrazol-3-yl)-(3-methoxy-phenyl)-amine], the inhibition at 10 µM stood at 50% and the IC50 was 44.2 µM.

On to `COc1cc2c(cc1OC)-c1c(c(Nc3cccc(F)c3)nn1C(=O)NCCNC(=O)c1ccccc1O)C2` [Compound 542, 3-(3-Fluoro-phenylamino)-6,7-dimethoxy-4H-indeno[1,2-c]pyrazole-1-carboxylic acid [2-(2-hydroxy-benzoylamino)-ethyl]-amide], for which the inhibition at 10 µM is 21%.

For the compound `COc1cc2c(cc1OC)-c1c(c(Nc3cccc(F)c3)nn1C(=O)NCCOCCOCCO)C2` [Compound 544, 3-(3-Fluoro-phenylamino)-6,7-dimethoxy-4H-indeno[1,2-c]pyrazole-1-carboxylic acid {2-[2-(2-hydroxy-ethoxy)-ethoxy]-ethyl}-amide], the inhibition at 10 µM was determined as 60%.

Consider `CCC1c2cc(OC)c(OC)cc2-c2c1c(Nc1cccc(Br)c1)nn2C(=O)c1ccccc1` (centres unmarked) [Compound 546, [3-(3-Bromo-phenylamino)-4-ethyl-6,7-dimethoxy-4H-indeno[1,2-c]pyrazol-1-yl]-phenyl-methanone], for which the inhibition at 10 µM is 72.5%.

For the compound `CCC1c2cc(OC)c(OC)cc2-c2c1c(Nc1cccc(Br)c1)nn2C(=O)OCCOCCOCCO` (centres unmarked) [Compound 547, 3-(3-Bromo-phenylamino)-4-ethyl-6,7-dimethoxy-4H-indeno[1,2-c]pyrazole-1-carboxylic acid 2-[2-(2-hydroxy-ethoxy)-ethoxy]-ethyl ester], the inhibition at 10 µM amounted to 68.5%.

In the case of `COc1cc2c(cc1OC)C(C)c1c(Nc3cccc(Br)c3)nn(C(=O)OCCOCCOCCO)c1-2` (centres unmarked) [Compound 548, 3-(3-Bromo-phenylamino)-6,7-dimethoxy-4-methyl-4H-indeno[1,2-c]pyrazole-1-carboxylic acid 2-[2-(2-hydroxy-ethoxy)-ethoxy]-ethyl ester], the inhibition at 10 µM is 82.5% and the half-maximal inhibitory concentration (IC50) turned out to be 0.214 µM.

Consider `COc1cc2c(cc1OCc1ccccc1)-c1n[nH]c(Nc3cccc(F)c3)c1C2` [Compound 549, (7-Benzyloxy-6-methoxy-2,4-dihydro-indeno[1,2-c]pyrazol-3-yl)-(3-fluoro-phenyl)-amine], for which the inhibition at 10 µM was found to be 106% and the IC50 was determined as 0.0911 µM.

For the compound `COc1cc2c(cc1OC)[C@@H](C)c1c-2n[nH]c1Nc1cccc(Br)c1` [Compound 553, (4R)-N-(3-bromo-phenyl)-(6,7-dimethoxy-4-methyl-2,4-dihydro-indeno[1,2-c]pyrazol-3-yl)-amine], the inhibition at 10 µM was 99.5% and the IC50 amounted to 0.0065 µM.

For the compound `COc1cc2c(c(NC(C)=O)c1OC)Cc1c-2n[nH]c1Nc1cccc(F)c1` [Compound 557, N-[3-(3-Fluoro-phenylamino)-6,7-dimethoxy-2,4-dihydro-indeno[1,2-c]pyrazol-5-yl]-acetamide], the inhibition at 10 µM was 102% and the IC50 is 0.0325 µM.

Take `COc1cc2c(c(N)c1OC)Cc1c-2n[nH]c1Nc1cccc(F)c1` [Compound 558, N3-(3-Fluoro-phenyl)-6,7-dimethoxy-2,4-dihydro-indeno[1,2-c]pyrazole-3,5-diamine]: the inhibition at 10 µM was 102% and the IC50 was found to be 0.0121 µM.
